Laboratory results as given in ChEMBL document CHEMBL1201862, “PubChem BioAssay data set” (2004).
Active and inactive are the calls of the source.

How the values were obtained:
Cytochrome P450 2C9 [1] = biological target: T1, Cytochrome P450 2C9 (Homo sapiens, UniProt P11712)
Cytochrome P450 2C19 = Cytochrome P450 2C19 (Homo sapiens, UniProt P33261); assay: Cytochrome panel assay with activity outcomes. Panel member name: p450-cyp2c19 Compounds with AC50 equal or less than 10 uM are considered active; format: functional; settings: read-out: AC50
Cytochrome P450 2C9 [2] = biological target: T1, Cytochrome P450 2C9; settings: Potency
Danio rerio = assay: In Vivo Angiogenesis Dose-Response Confirmation. [Related pubchem assays: 732 (Assay preceding this confirmatory assay.)]; format: functional, organism-based
Heat shock protein HSP90 = Heat shock protein HSP90 (Homo sapiens, UniProt P07900+P08238); assay: Hsp90 blockade concentration-response – dose response (AID 712); format: functional
Protein RecA = biological target: T2, Protein RecA (Mycobacterium tuberculosis, UniProt P9WHJ3); assay: Fluorescence Cell-Free Homogeneous Dose Retest to Identify Inhibitors of RecA-Intein Splicing Activity. [Related pubchem assays (depositor defined):AID2097, AID2223, AID489010, AID492950]; format: functional
T2 sequence (P9WHJ3 whole entry): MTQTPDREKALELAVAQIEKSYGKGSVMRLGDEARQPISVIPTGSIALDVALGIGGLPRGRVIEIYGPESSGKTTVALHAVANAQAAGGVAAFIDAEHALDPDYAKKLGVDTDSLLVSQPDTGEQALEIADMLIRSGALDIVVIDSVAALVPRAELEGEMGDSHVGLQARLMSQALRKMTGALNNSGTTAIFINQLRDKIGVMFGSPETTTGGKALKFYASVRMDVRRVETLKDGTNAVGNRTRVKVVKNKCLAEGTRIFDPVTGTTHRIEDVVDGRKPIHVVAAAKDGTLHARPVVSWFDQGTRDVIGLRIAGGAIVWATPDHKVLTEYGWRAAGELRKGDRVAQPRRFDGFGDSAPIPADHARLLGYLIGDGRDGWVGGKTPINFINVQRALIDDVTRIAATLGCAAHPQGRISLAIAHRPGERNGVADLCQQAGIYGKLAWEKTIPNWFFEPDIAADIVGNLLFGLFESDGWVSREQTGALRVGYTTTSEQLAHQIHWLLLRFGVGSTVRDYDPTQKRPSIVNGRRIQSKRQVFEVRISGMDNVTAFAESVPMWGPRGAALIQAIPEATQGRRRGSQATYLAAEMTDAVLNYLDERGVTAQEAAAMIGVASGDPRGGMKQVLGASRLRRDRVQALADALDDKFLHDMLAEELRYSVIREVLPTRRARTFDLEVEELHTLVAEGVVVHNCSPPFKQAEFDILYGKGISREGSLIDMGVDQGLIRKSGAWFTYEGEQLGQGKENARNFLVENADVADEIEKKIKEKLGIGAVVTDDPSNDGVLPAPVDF

[3] = biological target: T3, Replicative DNA helicase DnaB (Mycobacterium tuberculosis, UniProt P9WMR3); assay: DnaB intein splicing inhibitors, dose response, biochemical, cell-free fluorescence (AID 449749); format: functional
T3 sequence (P9WMR3 whole entry): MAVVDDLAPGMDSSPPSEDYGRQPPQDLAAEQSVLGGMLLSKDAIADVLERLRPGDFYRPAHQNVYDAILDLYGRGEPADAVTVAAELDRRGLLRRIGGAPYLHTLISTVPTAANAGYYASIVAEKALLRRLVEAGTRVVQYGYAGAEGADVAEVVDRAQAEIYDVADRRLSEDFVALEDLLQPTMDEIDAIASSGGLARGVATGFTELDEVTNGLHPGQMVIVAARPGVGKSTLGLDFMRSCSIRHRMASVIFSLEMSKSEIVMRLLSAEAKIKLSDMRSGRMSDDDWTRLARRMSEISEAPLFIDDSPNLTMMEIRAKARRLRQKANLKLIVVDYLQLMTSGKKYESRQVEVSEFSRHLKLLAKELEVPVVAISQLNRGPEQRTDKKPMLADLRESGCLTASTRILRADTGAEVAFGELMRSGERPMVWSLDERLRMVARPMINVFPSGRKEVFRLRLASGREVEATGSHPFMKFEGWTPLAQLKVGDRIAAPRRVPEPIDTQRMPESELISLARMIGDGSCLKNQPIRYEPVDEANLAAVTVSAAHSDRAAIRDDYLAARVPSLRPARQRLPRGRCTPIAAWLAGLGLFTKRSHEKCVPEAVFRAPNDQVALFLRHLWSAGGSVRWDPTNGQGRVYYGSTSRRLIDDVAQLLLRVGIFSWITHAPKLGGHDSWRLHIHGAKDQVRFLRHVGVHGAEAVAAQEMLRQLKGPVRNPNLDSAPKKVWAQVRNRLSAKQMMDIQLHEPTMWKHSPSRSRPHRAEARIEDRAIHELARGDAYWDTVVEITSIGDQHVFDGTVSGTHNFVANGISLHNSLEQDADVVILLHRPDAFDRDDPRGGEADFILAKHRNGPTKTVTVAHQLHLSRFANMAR

14-3-3 protein gamma = 14-3-3 protein gamma (Homo sapiens, UniProt P61981); assay: modulators of 14-3-3 gamma client binding – dose response (AID 711); format: functional
Bcl-2-related protein A1 [4] = biological target: T4, Bcl-2-related protein A1 (Mus musculus, UniProt Q07440); assay: Bfl-1 binding inhibitors, SAR follow-up, biochemical, fluorescence polarization (AID 1070)
T4 sequence (Q07440 whole entry): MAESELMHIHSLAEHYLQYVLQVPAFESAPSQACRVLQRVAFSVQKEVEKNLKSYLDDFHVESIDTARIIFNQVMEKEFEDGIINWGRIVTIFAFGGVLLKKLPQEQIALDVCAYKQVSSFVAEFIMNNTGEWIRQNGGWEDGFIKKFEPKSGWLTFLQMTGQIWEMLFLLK

[5] = biological target: Glyceraldehyde-3-phosphate dehydrogenase (Homo sapiens, UniProt P04406)
Bcl-2-related protein A1 [6] = biological target: T4, Bcl-2-related protein A1; assay: small-molecule antagonists of Bfl-1/BH3 interaction – biochemical, TR-FRET, mouse Bfl-1, confirmation (AID 621);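 further: TR-FRET binding of GST-Bfl-1 to FITC-labelled Bid peptide via terbium antibody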
[7] = biological target: Voltage-gated inwardly rectifying potassium channel KCNH2 (Homo sapiens, UniProt Q12809); assay: concentration-dependent hERG rescue from blockers – cell-based, thallium flux, dose response (AID 2121); format: ADME
Vero [8] = assay: Vero cell viability after compound exposure – synthesized analogs, set II, cytotoxicity control for West Nile virus antiviral project, SAR follow-up (AID 2402); format: functional; settings: Chlorocebus sabaeus
NADPH oxidase 1 = biological target: T5, NADPH oxidase 1 (Homo sapiens, UniProt Q9Y5S8); assay: Late-stage luminescence-based cell-based dose response assay to identify inhibitors of NADPH oxidase 1 (NOX1): Synthesized analogs.; format: functional
T5 sequence (Q9Y5S8 whole entry): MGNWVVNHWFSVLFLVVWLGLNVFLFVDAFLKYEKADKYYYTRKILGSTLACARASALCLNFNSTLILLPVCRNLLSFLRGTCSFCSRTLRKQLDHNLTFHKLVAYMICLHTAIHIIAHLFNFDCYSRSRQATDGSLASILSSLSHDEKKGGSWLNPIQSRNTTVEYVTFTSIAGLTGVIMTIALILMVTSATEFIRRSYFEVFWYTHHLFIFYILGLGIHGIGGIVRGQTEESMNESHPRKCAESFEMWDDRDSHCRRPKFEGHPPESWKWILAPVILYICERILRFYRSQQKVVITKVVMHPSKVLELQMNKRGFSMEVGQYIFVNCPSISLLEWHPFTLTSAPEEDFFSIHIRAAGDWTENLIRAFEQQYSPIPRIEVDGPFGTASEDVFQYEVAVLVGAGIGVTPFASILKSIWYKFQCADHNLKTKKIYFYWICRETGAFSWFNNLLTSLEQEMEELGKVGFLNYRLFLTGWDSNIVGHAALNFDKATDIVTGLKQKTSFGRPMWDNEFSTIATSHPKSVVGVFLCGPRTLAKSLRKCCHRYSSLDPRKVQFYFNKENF

[9] = biological target: E3 ubiquitin-protein ligase Mdm2 (Homo sapiens, UniProt Q00987); assay: MDM2-luc reporter signal enhancers, multi-concentration potency testing, MDM2 ubiquitin-protein ligase inhibitor program, whole-cell format, luminescence detection, 384-well microplate (AID 1394); format: functional;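 further: MDM2 E3 inhibitors raise luminescence so EC50 is for signal enhancement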
Vero [10] = assay: cells; format: functional; settings: Chlorocebus sabaeus
Bcl-2-related protein A1 [11] = biological target: T4, Bcl-2-related protein A1; assay: displacement of Bid BH3 peptide from Bfl-1 – biochemical, fluorescence polarization, FITC-Bid, mouse, primary screen (AID 432)
[12] = biological target: T6, Sphingosine 1-phosphate receptor 4 (Homo sapiens, UniProt O95977); assay: Late stage fluorescence dose response cell-based screening assay for antagonists of the Sphingosine 1-Phosphate Receptor 4 (S1P4). [Related pubchem assays: 1524 (Confirmation screen (S1P4 antagonists).), 1510 (Primary screen (S1P4 antagonists).), 1853 (Summary AID (S1P4 antagonists).), 1692 (Dose response screen (S1P4 antagonists).)]; format: functional
T6 sequence (O95977 whole entry): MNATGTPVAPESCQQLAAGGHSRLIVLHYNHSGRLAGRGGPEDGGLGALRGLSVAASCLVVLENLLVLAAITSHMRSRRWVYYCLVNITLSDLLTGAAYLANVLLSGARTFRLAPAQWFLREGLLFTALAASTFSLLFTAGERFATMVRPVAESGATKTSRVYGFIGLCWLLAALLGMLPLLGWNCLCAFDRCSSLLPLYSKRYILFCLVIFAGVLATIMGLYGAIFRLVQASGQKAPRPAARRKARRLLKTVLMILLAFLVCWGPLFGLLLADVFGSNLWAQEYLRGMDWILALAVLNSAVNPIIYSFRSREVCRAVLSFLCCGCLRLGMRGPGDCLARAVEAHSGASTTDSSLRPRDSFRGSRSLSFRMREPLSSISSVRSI

[13] = biological target: Sphingosine 1-phosphate receptor 1 (Homo sapiens, UniProt P21453); format: functional;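 further: Tango beta-arrestin reporter U2OS cells stimulated with S1P near its EC80; inhibitor potency meaning antagonism of receptor activation by the natural agonist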
[14] = Luminescence Cell-Based Dose Confirmation HTS to Identify Inhibitors of Platelet Dense Granule Release. [Related pubchem assays: 1663 (Primary HTS), 1678 (Summary of Project)]; format: functional
[15] = biological target: Luciferin 4-monooxygenase (Photinus pyralis, UniProt P08659); assay: inhibition of purified Photinus pyralis luciferase – biochemical, luminescence, dose response (AID 1891)
[16] = biological target: T7, Heat shock factor protein 1 (Mus musculus, UniProt P38532); assay: enhancement of HSF1-driven luciferase signal – cell-based, NIH3T3, luminescence, dose retest, confirmation (AID 435004); format: functional;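 further: stress induced by proteasome inhibitor MG132 added 30 min after compound; luciferase reporter driven by HSF1 response element in NIH3T3 cells; actives raise luminescence as potentiators of the MG132 stress response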
T7 sequence (P38532 whole entry): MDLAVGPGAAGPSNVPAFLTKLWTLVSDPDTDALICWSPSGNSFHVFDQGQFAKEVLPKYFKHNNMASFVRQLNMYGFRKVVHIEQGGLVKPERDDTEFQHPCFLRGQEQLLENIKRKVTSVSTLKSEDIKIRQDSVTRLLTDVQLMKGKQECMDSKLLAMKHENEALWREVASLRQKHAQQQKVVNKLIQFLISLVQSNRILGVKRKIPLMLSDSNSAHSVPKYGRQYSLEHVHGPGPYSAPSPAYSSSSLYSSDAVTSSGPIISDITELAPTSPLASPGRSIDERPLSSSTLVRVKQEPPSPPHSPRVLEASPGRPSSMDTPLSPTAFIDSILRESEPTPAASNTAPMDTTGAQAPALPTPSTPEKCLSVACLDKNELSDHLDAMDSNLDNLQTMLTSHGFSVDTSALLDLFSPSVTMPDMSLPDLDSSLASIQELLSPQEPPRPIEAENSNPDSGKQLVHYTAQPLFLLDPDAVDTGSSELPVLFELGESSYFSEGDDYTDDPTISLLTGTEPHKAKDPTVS

[17] = microbe, parasite or virus in culture; format: functional; settings: Mycobacterium tuberculosis
[18] = biological target: T6, Sphingosine 1-phosphate receptor 4; assay: Fluorescence dose response cell-based high throughput screening assay for antagonists of the Sphingosine 1-Phosphate Receptor 4 (S1P4). [Related pubchem assays: 1524 (Confirmation in triplicates.), 1510 (Primary screen.)]; format: functional
[19] = Luminescent dose response cell-based high throughput screening assay for inhibitors of the Janus kinase 2 mutant JAK2V617F. [Related pubchem assays: 1446 (Primary screen.), 1521 (Confirmation assay.), 1486 (Counter screen.)]; format: functional

T1 sequence (P11712 whole entry): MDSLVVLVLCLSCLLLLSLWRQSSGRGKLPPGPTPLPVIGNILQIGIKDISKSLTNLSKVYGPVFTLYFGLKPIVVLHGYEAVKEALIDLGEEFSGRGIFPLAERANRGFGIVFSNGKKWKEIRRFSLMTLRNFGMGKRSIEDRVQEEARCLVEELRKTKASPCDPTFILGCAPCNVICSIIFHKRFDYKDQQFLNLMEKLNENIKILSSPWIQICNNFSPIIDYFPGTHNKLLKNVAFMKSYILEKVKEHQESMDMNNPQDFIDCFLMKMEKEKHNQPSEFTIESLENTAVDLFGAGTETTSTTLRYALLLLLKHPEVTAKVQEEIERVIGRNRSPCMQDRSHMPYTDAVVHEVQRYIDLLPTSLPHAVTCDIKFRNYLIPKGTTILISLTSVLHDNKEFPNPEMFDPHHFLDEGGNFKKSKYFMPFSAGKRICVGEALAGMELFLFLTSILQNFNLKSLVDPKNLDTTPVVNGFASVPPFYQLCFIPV
Chain of Glyceraldehyde-3-phosphate dehydrogenase (P04406 whole entry): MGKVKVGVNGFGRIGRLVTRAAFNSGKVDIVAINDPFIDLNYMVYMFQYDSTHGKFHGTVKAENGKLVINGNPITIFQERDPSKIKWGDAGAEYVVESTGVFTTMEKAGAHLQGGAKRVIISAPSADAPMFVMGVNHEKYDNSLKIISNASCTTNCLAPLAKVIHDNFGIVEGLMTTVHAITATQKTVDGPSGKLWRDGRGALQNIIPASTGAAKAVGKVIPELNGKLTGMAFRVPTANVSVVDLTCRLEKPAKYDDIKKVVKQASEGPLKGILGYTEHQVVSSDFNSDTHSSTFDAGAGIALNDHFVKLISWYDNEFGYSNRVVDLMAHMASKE
Chain of Luciferin 4-monooxygenase (P08659 whole entry): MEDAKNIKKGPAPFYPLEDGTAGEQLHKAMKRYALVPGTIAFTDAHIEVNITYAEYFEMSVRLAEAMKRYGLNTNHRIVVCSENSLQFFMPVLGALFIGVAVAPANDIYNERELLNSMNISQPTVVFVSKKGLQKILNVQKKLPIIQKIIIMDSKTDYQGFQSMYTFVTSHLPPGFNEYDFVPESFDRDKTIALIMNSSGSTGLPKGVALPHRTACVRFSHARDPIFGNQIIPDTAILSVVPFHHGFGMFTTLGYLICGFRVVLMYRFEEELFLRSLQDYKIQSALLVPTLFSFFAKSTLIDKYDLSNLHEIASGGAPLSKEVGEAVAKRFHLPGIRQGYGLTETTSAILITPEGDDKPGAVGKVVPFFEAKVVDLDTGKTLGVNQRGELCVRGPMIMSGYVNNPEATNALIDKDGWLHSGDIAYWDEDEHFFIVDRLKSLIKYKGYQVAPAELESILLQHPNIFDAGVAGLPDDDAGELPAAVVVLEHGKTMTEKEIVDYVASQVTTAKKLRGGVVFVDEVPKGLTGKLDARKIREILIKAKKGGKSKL
Chain of Cytochrome P450 2C19 (P33261 whole entry): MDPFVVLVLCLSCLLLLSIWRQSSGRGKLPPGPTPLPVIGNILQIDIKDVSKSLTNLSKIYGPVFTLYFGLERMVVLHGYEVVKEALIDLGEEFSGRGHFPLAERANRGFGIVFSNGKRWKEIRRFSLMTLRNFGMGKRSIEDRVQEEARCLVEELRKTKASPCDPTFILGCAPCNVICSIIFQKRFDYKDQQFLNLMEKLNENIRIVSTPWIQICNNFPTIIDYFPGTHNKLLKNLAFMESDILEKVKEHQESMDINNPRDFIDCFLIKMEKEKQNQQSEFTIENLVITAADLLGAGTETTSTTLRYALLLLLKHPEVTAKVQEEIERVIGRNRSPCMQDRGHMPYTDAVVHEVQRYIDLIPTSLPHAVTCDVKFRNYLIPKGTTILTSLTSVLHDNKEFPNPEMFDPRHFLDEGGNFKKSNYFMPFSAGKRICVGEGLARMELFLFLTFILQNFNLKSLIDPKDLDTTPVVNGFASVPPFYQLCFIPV
Chain of E3 ubiquitin-protein ligase Mdm2 (Q00987 whole entry): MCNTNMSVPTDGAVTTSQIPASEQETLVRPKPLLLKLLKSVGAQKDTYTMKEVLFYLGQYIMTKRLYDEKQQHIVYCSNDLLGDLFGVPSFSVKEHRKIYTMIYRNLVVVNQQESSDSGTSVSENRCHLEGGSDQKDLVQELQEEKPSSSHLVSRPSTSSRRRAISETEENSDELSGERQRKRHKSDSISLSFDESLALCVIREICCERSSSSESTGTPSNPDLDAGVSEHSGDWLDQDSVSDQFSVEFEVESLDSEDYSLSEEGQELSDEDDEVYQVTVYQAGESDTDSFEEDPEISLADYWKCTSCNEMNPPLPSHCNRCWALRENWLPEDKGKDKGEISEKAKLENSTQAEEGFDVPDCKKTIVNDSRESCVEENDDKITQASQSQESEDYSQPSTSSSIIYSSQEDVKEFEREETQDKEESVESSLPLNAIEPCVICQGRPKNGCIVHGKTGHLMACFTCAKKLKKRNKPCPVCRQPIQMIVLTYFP
Chain of Sphingosine 1-phosphate receptor 1 (P21453 whole entry): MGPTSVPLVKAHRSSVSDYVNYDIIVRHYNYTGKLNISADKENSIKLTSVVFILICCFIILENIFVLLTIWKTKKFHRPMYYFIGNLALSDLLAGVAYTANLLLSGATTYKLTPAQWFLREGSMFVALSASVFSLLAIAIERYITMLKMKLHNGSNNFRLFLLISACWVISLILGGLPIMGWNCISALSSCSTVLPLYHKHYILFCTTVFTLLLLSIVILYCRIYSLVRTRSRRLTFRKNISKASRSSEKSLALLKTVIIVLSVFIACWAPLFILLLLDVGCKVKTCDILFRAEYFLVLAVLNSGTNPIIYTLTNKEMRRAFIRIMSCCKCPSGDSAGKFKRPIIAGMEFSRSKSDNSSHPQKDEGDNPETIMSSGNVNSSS
Chain of 14-3-3 protein gamma (P61981 whole entry): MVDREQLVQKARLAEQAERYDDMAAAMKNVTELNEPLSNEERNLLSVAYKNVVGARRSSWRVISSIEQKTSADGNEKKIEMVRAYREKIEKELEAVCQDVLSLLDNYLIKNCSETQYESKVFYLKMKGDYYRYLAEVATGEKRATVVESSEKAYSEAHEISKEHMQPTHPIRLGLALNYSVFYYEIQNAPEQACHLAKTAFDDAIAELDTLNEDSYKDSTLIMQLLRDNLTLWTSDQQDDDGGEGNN
Chain of Voltage-gated inwardly rectifying potassium channel KCNH2 (Q12809 whole entry): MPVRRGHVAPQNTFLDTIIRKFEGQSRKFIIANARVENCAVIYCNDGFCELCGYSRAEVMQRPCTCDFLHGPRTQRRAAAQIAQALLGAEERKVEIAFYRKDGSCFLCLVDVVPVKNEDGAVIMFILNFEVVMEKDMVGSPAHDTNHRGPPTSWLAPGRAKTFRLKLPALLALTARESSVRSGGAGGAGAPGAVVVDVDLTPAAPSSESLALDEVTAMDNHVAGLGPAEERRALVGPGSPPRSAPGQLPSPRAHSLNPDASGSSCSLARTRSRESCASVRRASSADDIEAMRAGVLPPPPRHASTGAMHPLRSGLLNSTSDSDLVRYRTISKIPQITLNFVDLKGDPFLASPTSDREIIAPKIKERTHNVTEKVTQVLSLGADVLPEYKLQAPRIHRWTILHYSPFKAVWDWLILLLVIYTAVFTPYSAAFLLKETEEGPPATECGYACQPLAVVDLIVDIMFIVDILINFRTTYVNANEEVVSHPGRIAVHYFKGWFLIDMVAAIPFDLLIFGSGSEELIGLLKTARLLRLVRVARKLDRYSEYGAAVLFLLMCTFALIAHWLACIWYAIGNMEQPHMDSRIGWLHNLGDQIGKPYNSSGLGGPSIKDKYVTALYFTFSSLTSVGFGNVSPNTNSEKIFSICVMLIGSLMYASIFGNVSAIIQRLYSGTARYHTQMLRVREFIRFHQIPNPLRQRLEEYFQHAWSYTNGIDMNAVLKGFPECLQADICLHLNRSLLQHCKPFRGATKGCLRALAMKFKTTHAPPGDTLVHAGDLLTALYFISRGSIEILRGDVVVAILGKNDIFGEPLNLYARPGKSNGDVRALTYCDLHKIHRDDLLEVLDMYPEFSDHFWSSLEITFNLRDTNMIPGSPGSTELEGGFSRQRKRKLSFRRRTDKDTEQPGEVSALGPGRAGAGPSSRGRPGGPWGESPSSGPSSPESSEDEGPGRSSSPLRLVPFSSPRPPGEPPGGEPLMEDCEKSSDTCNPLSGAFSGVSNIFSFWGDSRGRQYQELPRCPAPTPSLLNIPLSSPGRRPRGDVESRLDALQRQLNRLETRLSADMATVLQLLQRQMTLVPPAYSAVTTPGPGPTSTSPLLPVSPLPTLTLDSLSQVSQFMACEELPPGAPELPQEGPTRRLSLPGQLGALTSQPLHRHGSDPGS

SMILES: O=Nc1c(-c2c(O)[nH]c3ccccc23)[nH]c2ccccc12 [INDIRUBIN-3-MONOXIME]
- AC50 (Cytochrome P450 2C9 [1]): 39.8 µM (inconclusive)
- AC50 (Cytochrome P450 2C19): 39.8 µM (inconclusive)
- AC50 (Cytochrome P450 2C9 [2]): 12.6 µM (inconclusive)
- IC50 (Danio rerio): 0.31 µM (active)

SMILES: Cc1cccc(NC(=O)c2c(O)c3cccc4c3n(c2=O)CCC4)n1
- IC50 (Heat shock protein HSP90): > 50 µM

SMILES: NC(=O)c1c(-c2cccs2)csc1N
- EC50 (Protein RecA): 1.02 µM (active)
- AC50 [3]: > 380 µM (inactive)
- IC50 (14-3-3 protein gamma): > 50 µM (not active)

SMILES: CS(=O)(=O)c1nc(-c2ccc3ccccc3c2)cc(C(F)(F)F)n1
- IC50 (Bcl-2-related protein A1 [4]): > 100 µM (not active)
- IC50 [5]: > 100 µM (not active)
- IC50 (Bcl-2-related protein A1 [6]): > 100 µM (not active)

SMILES: C/C(Nc1cccc(F)c1)=C(/C#N)C(N)=O
- EC50 [7]: 0.88 µM (active)

SMILES: OC1c2c(F)cccc2N=C2CCCCCN21 (configuration not stated)
- CC50 (Vero [8]): > 200 µM (active)

SMILES: COC(=O)Nc1ccc2c(c1)N(C(=O)CCCl)c1ccccc1S2
- IC50 (NADPH oxidase 1): > 50 µM (not active)

SMILES: CCOC(=O)N1C/C(=C\c2ccccc2)C(=O)/C(=C/c2ccccc2)C1
- EC50 [9]: 0.61 µM (active)
- CC50 (Vero [10]): 23 µM (active)

SMILES: COC(=O)Cn1c2c(c3cc(C)ccc31)CCCC2
- IC50 (Bcl-2-related protein A1 [11]): > 100 µM (not active)
- IC50 (Bcl-2-related protein A1 [6]): > 100 µM (not active)

SMILES: O=C(C=C=Nc1ccccc1)C(=O)N=C=Cc1ccccc1
- IC50 [12]: 4.55 µM (not active)
- IC50 [13]: > 49.8 µM (not active)
- CC50 (Vero [10]): 18.9 µM (active)
- EC50 [14]: 47 µM (active)
- EC50 [15]: > 112 µM (not active)
- EC50 [16]: 5.61 µM (inconclusive)
- CC50 [17]: 16.6 µM (active)
- IC50 [18]: 0.972 µM (active)
- IC50 [19]: 1.91 µM (active)
